Legend:
[1] = test system: AsPC-1 human pancreatic tumor cells; details: previously published data; cited from earlier work
[2] = test system: CFPAC human pancreatic carcinoma cells; details: previously published data; cited from earlier work
[3] = test system: AsPC-1 human pancreatic tumor cells; experiment: AsPC-1 pancreatic cancer xenograft growth in nude mice; type: in vivo
Description: AsPC-1 human pancreatic tumor cells were injected subcutaneously into the flank of female athymic nude mice (nu/nu; 5×10^6 cells/mice). Upon xenografts reaching 100-500 mm^3, the mice were randomized and divided into four experimental groups. One group was administered a cocktail of neurotrophin antibodies (anti-NGF, BDNF, NT-3, and NT4/5). Each dose of antibody cocktail (100 μl) contained 100 μg of each neurotrophin antibody. The second experimental group was administered normal rabbit IgG (400 μg/100 μl; PeproTech 500-P00) as a control. All antibodies were administered intratumorally (50 μl) at five injection sites and peritumorally (50 μl) at five injection sites. […] Tumor length and width were measured every two to three days (Days 1, 3, 5, 8, 10, 12, and 15). […]
Tumor volumes were calculated as described above. The mean tumor volumes and standard errors were also calculated as described above. […] Probability values were calculated as described above. […]
Tumors were measured every 2-4 days using a vernier caliper. Tumor volumes were calculated as described above. The mean tumor volumes and standard errors were also calculated as described above. […] Statistical analyses were calculated as described above with p≦0.05 deemed significant. […]

[4] = test system: TSU-Pr1 human prostate tumor cells; experiment: TSU-Pr1 prostate cancer xenograft growth in nude mice; type: in vivo; details: Experiment #1
Description: TSU-Pr1 human prostate tumor cells were injected subcutaneously into the flank of female athymic nude mice (nu/nu; 5×10^6 cells/mice). Upon xenografts reaching 100-500 mm^3, the mice were randomized and divided into four experimental groups. One group was administered a cocktail of neurotrophin antibodies (anti-NGF, BDNF, NT-3, and NT4/5). Each dose of antibody cocktail (100 μl) contained 100 μg of each neurotrophin antibody. The second experimental group was administered normal rabbit IgG (400 μg/100 μl; PeproTech 500-P00) as a control. All antibodies were administered intratumorally (50 μl) at five injection sites and peritumorally (50 μl) at five injection sites. […] Tumor length and width were measured every two to three days (Days 1, 3, 5, 8, 10, 12, and 15).
The fourth experimental group received vehicle only (100 μl) according to the dosing schedule of the third experimental group. Tumor length and width were measured every two to three days (Days 1, 3, 5, 8, 10, 12, and 15).
Tumor volumes were calculated as described above. The mean tumor volumes and standard errors were calculated as described above. […] Probability values were calculated as described above. […]
Tumor volumes were calculated as described above. The mean tumor volumes and standard errors were also calculated as described above. […] Probability values were calculated as described above.

trkA = trkA (Homo sapiens, UniProt P04629); details: ELISA (stated for CEP-751); read-out: IC50 trkA inhibition; cited from earlier work
trkA, sequence (P04629 33-796, species assumed): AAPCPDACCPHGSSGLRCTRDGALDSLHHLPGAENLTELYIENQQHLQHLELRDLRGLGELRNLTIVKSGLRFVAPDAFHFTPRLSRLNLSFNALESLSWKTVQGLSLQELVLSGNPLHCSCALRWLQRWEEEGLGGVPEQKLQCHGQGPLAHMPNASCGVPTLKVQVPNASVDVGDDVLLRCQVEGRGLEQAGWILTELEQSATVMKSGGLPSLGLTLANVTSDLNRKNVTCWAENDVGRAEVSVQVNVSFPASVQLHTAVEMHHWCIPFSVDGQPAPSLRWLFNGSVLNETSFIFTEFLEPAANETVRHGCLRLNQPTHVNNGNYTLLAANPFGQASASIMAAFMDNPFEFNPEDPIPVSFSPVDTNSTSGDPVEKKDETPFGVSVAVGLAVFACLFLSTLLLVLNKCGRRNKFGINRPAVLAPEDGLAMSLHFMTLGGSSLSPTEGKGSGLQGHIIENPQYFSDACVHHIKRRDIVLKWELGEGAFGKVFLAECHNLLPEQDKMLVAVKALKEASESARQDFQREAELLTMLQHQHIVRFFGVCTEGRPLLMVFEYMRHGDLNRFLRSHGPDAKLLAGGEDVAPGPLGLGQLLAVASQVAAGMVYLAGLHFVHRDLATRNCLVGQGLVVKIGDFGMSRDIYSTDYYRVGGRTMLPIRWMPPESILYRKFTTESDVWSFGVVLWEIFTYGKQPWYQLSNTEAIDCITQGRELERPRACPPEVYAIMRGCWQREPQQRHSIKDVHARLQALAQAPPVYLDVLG

[5] = test system: PC-3 human prostate tumor cells; experiment: PC-3 prostate cancer xenograft growth in nude mice; type: in vivo, human tumor cells in athymic nude mice; details: 10 mg/kg s.c. BID
Description: PC-3 human prostate tumor cells (5×10^6 cells/mice) were injected subcutaneously into the flank of eight to ten week old, female athymic nude mice (nu/nu; Charles River, Raleigh, N.C.). Mice weighed between 22-25 grams on the day of tumor implantation. Upon xenografts reaching 100-500 mm^3, the mice were randomized and divided into experimental groups. Some experimental groups were administered a cocktail of neurotrophin antibodies (4×25 μg each, or 4×100 μg each of anti-NGF, BDNF, NT-3, and NT4/5) or normal rabbit IgG (100 μg or 400 μg; PeproTech 500-P00) in sterile 1×PBS (total volume of 100 μl). All antibodies were administered intratumorally (50 μl) at five injection sites and peritumorally, subcutaneously (50 μl) at five injection sites. […] Tumor length and width were measured every two to three days. […] Tumor length and width were measured every two to three days (days 1, 3, 5, 8, 10, 12, 15, 17, 19 and 22).
Tumor volumes were calculated as (length×width (length+width)/2))×0.526 (Isaacs, Canc. […] The mean tumor volumes and standard errors were calculated (SigmaStat, Jandel Scientific, San Rafel, Calif.). […] Relative tumor volumes were calculated as (mean vt mean vo), where vt refers to tumor volume on a given day and vo is the volume of the same tumor at initiation of dosing (day 1). […] Probability values were calculated by the Mann-Whitney Rank Sum Test (SigmaStat).

SMILES	Growth of AsPC-1 tumors [1]	CFPAC tumor growth [2]	Minimum T/C (absolute tumor volumes vs vehicle control) ([3]; 10 mg/kg sc BID, Day 15)	Tolerability (deaths or morbidity) ([3]; nude mice bearing AsPC-1 xenografts)	Minimum T/C (absolute tumor volumes vs vehicle control) ([4]; 10 mg/kg sc BID, Days 12 and 15)	Tolerability (deaths or morbidity) ([4]; nude mice bearing TSU-Pr1 xenografts)	IC50 (trkA) [nM]	Growth of PC-3 tumors relative to vehicle control ([5]; 22 days)	Minimum T/C (absolute tumor volumes vs vehicle control) ([5]; day 19)
C[C@]12O[C@H](C[C@]1(O)CO)n1c3ccccc3c3c4c(c5c6ccccc6n2c5c31)CNC4=O [CEP-701]	inhibited	insensitive	0.27	well tolerated	0.29	well tolerated			
CO[C@]1(CO)C[C@H]2O[C@]1(C)n1c3ccccc3c3c4c(c5c6ccccc6n2c5c31)C(=O)NC4 [CEP-751]							3	inhibited the growth of PC-3 tumors	0.44
